One assay deals with NR1/NR2D (Homo sapiens, UniProt O15399+Q05586). In words: Two electrode voltage clamp, Xenopus laevis oocytes expressing NR1/NR2D. The settings on record: for Emax: read-out: 2D Max. Background: Two-electrode voltage clamp holds a large cell at a set potential and records current.
For the next assay, the target named is T1, NR1/NR2B (Homo sapiens, UniProt Q05586+Q13224).
T1 construct: expressed in transfected cells; host or cells: Xenopus laevis oocytes
In words: Two electrode voltage clamp, Xenopus laevis oocytes expressing NR1/NR2B. In kind it is cell-based. The note with it: at 100 μM; read-out: 2B percent effect at the maximum tested concentration. The protocol:
(§1) In the table above, potency is expressed as fitted EC50 value to average composite concentration-effect data constructed from current responses recorded under two electrode voltage clamp from Xenopus laevis oocytes expressing either NR1/NR2A, B, C, or D, GluR1, or GluR6. No effect means less than 20% change in response amplitude at 30 μM of drug.

The next assay deals with T2, NR1/NR2C (Homo sapiens, UniProt Q05586+Q14957).
T2 construct: expressed in transfected cells; host or cells: Xenopus laevis oocytes
In words: Two electrode voltage clamp, Xenopus laevis oocytes expressing NR1/NR2C. In kind it is cell-based. The settings on record: for IC50: fitted to composite concentration-effect data, read-out: 2C IC50; for Emax: maximal effect of fit, read-out: 2C Max; for activity at 100 µM: read-out: 2C percent effect at the maximum tested concentration.
Text: Values are mean+SEM (n=14-20). […] C is the closed level; broken line is the open level.
The Hill slope at both receptors for all analogues was greater than 1, consistent with a cooperative effect of binding at two sites.
as §1

Another assay addresses T3, NR1/NR2A (Homo sapiens, UniProt Q12879).
T3 construct: expressed in transfected cells; host or cells: Xenopus laevis oocytes
In words: Two electrode voltage clamp, Xenopus laevis oocytes expressing NR1/NR2A. In kind it is cell-based. The note with it: read-out: 2A percent effect at the maximum tested concentration. On the procedure:
as §1

Where [1] appears, read: read-out: 2D percent effect at the maximum tested concentration, at 100 μM.

Where two headings read alike, the source gives them in different places.

As a reminder, the IC50 is the concentration that inhibits the measured activity by half.

T3 sequence (Q12879 23-1464, species assumed, other chains not shown): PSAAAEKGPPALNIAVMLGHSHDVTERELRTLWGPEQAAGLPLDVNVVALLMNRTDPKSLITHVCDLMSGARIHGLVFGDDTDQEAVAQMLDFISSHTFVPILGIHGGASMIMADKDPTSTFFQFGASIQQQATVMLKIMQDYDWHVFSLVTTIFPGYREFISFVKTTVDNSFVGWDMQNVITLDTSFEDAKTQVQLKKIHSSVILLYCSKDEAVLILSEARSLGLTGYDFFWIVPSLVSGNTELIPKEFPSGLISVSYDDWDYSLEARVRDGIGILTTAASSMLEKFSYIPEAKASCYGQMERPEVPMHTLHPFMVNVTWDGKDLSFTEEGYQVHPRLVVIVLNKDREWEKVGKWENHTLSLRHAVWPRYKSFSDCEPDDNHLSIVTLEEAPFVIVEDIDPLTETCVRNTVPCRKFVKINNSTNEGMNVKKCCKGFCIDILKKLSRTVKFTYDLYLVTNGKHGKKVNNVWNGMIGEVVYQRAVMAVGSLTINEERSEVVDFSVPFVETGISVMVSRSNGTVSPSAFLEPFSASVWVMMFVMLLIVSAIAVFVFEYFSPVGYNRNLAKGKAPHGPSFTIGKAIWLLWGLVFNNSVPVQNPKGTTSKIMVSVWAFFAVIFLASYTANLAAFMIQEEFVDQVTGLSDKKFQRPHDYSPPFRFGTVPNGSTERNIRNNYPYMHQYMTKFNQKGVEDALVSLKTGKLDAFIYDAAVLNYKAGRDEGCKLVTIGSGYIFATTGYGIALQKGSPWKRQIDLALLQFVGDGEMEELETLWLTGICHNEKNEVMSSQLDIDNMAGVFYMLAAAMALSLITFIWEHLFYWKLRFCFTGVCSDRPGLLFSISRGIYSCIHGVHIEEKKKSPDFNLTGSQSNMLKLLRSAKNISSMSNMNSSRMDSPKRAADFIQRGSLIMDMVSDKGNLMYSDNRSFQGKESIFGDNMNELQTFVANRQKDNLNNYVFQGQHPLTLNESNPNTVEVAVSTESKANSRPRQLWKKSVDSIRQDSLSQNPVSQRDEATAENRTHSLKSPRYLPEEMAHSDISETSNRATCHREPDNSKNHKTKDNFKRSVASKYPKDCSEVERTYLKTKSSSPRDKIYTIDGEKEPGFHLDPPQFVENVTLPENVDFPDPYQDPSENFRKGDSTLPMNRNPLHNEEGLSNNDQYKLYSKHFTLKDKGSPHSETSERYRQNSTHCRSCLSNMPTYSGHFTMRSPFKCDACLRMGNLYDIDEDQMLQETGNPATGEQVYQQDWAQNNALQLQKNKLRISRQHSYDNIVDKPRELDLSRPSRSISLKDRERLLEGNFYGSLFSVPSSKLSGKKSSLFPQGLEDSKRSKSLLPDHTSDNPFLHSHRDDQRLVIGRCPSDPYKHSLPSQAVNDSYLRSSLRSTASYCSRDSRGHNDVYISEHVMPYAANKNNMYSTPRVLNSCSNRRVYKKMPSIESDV
T2 sequence (Q14957 20-1233, species assumed, other chains not shown): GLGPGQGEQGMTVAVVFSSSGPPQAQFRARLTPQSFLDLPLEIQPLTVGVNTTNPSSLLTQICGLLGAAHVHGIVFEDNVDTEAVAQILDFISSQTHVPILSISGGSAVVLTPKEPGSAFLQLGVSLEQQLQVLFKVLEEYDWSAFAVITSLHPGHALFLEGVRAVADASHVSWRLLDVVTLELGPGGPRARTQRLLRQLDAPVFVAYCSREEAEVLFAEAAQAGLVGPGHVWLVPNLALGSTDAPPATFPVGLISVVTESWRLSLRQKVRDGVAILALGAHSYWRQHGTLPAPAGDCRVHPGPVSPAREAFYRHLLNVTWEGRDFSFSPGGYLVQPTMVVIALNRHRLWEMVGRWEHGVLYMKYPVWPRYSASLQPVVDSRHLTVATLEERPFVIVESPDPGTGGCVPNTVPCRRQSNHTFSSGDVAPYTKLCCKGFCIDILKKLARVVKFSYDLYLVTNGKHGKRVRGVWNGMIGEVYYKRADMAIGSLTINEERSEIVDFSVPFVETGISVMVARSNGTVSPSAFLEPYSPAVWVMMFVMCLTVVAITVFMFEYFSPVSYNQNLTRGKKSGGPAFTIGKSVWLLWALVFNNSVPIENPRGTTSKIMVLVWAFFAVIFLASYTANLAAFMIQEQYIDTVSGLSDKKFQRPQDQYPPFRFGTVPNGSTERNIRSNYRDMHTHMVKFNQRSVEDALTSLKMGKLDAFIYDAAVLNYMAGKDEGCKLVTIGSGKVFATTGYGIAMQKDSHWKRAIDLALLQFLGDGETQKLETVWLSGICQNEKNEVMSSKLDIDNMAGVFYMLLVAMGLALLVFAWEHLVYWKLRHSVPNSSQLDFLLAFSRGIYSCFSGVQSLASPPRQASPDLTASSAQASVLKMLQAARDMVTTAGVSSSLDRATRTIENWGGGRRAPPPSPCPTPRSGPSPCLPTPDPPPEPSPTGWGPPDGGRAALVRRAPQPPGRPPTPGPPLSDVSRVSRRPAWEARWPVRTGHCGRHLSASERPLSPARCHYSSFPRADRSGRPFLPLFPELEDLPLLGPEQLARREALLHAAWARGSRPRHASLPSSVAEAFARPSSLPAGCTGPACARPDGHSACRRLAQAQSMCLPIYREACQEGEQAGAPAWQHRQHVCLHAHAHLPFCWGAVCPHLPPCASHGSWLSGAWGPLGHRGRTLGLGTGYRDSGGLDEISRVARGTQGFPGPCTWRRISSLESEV
T1 sequence (Q13224 27-1484, species assumed, other chains not shown): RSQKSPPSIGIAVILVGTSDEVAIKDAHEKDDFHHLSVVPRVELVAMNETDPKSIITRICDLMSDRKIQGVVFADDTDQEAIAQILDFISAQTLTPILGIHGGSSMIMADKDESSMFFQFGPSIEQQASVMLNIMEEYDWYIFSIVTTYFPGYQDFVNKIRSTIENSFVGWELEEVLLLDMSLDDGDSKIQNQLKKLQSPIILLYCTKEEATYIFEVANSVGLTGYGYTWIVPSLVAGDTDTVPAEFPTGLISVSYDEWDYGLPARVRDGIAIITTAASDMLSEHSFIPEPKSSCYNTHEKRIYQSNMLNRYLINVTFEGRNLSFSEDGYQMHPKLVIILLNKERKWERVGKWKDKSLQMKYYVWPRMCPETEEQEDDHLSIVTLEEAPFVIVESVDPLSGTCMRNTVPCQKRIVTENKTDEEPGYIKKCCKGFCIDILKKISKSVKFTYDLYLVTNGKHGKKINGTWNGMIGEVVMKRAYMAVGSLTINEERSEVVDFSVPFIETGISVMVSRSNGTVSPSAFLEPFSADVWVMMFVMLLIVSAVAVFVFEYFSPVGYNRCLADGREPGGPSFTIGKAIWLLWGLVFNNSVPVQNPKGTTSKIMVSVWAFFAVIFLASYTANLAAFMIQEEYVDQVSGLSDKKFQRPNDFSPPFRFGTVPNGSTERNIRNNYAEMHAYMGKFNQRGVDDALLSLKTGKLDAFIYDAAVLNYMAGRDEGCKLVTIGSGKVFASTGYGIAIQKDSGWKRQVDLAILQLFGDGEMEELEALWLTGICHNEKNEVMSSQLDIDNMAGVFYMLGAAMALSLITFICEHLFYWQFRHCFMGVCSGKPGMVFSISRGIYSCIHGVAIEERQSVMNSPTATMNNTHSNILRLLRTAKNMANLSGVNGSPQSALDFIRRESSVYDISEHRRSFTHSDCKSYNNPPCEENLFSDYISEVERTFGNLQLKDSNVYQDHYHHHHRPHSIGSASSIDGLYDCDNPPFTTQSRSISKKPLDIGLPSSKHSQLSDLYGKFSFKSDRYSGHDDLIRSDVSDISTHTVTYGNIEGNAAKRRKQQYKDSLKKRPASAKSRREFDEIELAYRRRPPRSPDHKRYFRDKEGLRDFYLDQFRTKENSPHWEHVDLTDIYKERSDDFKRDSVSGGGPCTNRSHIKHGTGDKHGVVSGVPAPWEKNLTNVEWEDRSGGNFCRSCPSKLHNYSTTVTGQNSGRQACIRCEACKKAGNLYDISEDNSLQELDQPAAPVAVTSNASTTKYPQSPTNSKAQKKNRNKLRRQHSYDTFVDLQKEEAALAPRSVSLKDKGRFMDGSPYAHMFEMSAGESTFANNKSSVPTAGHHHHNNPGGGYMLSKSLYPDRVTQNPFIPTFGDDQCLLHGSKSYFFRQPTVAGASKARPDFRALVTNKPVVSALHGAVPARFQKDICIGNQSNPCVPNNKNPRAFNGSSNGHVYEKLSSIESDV

As for `COc1ccc(OCC2c3cc(OC)c(OC)cc3CCN2C(=O)c2cccc([N+](=O)[O-])c2)cc1` (centres unmarked) [1180-16], the IC50 against NR1/NR2D amounted to 16 µM; on NR1/NR2C, 13 µM. Moreover, the Emax on NR1/NR2D was determined as 297%; on NR1/NR2C it was 267%. Further, the results for the activity at 100 µM at NR1/NR2B and on NR1/NR2A were 123% and 50%, respectively.
Take `COc1cc2c(cc1OC)C(COc1ccc(F)cc1)N(C(=O)c1cccc(F)c1)CC2` (centres unmarked) [compound 1394]: the activity at 100 µM at NR1/NR2D (setting [1]) came to 68%; on NR1/NR2B, 61%; at NR1/NR2C, 71%; at NR1/NR2A it was 101%.
On to `CC(C)(C)c1ccc(C(=O)Nc2sc3c(c2C(=O)O)CCCC3)cc1` [compound 1417], for which the values for the IC50 against NR1/NR2D and on NR1/NR2C were 16 µM and 20 µM, respectively. The Emax at NR1/NR2D was found to be 205%; at NR1/NR2C it was 202%. Moreover, the activity at 100 µM on NR1/NR2B amounted to 102%; on NR1/NR2A, 87%.
Regarding `CC(C)(C)c1ccc(C(=O)Nc2scc(-c3ccc(Br)cc3)c2C(=O)O)cc1` [compound 1435], the activity at 100 µM on NR1/NR2D (setting [1]) came to 103%; at NR1/NR2B, 98%; on NR1/NR2C, 103%; on NR1/NR2A it was 107%.
Regarding `COc1ccc(OCC2c3cc(OC)c(OC)cc3CCN2Cc2ccccc2)cc1` (centres unmarked) [1180-17], the activity at 100 µM is 83% at NR1/NR2D (setting [1]), 90% at NR1/NR2B and 95% on NR1/NR2C. The activity at 20 µM at NR1/NR2A (at 20 μM) was found to be 50%.
In the case of `COc1ccc(OCC2c3c(cc(OC)cc3OC)CCN2C(=O)c2cccc(Cl)c2)cc1` (centres unmarked) [1180-20], the IC50 is 18 µM at NR1/NR2D and 11 µM at NR1/NR2C. Besides, the values for the Emax at NR1/NR2D and on NR1/NR2C were 271% and 253%, respectively. Further, the figures for the activity at 100 µM on NR1/NR2B and on NR1/NR2A were 86% and 92%, respectively.
Consider `CCc1ccc(C(=O)Nc2sccc2C(=O)O)cc1` [compound 1489], for which the activity at 100 µM at NR1/NR2D (setting [1]) was found to be 76%; on NR1/NR2B, 78%; on NR1/NR2C, 83%; at NR1/NR2A, 95%.
For `COc1ccc(OCC2c3cc(OC)c(OC)cc3CCN2C(=O)c2cccc(F)c2)cc1` (centres unmarked) [compound 1369], the IC50 against NR1/NR2D and at NR1/NR2C was 7 µM throughout. In addition, the Emax on NR1/NR2D turned out to be 169%; at NR1/NR2C, 184%. For the same compound, the values for the activity at 100 µM at NR1/NR2B and at NR1/NR2A were 84% and 94%, respectively.
For `COc1ccc(OCC2c3c(cc(OC)cc3OC)CCN2C(=O)c2cccc(Br)c2)cc1` (centres unmarked) [1180-21], the IC50 on NR1/NR2D and on NR1/NR2C was 7 µM throughout. Further, the values for the Emax at NR1/NR2D and on NR1/NR2C were 230% and 265%, respectively. Further, the figures for the activity at 100 µM on NR1/NR2B and on NR1/NR2A were 72% and 92%, respectively.
`COc1ccc(OCC2c3cc(OC)c(OC)cc3CCN2C(=O)c2ccco2)cc1` (centres unmarked) [1180-4]: the activity at 100 µM on NR1/NR2D (setting [1]) was 89%; on NR1/NR2B, 69%; at NR1/NR2C, 100%; on NR1/NR2A it was 105%.
In the case of `COc1cc2c(cc1OC)CN(C(=O)c1ccccc1)CC2` [1180-28], the activity at 100 µM at NR1/NR2D (read-out: 2D percent effect at the maximum tested concentration) is 80%; at NR1/NR2B, 95%; on NR1/NR2C, 78%; on NR1/NR2A it was 71%.
Consider `CC(C)(C)c1ccc(C(=O)Nc2ccccc2C(=O)O)cc1` [compound 1479], for which the activity at 100 µM at NR1/NR2D (setting [1]) came out at 113%; at NR1/NR2B it was 97%; on NR1/NR2C, 102%; at NR1/NR2A it was 94%.
With `Cc1cc(C(=O)O)c(NC(=O)c2ccc(C(C)(C)C)cc2)s1` [compound 1357], the values for the 50% inhibitory concentration (IC50) against NR1/NR2D and at NR1/NR2C were 120 µM and 175 µM, respectively. The Emax at NR1/NR2D was 326%; on NR1/NR2C it was 388%. The activity at 100 µM on NR1/NR2B and at NR1/NR2A was 102% throughout.
For the compound `COc1ccc(C(=O)Nc2sc(C)cc2C(=O)O)cc1` [compound 1420], the activity at 100 µM on NR1/NR2D (setting [1]) stood at 75%; on NR1/NR2B, 97%; on NR1/NR2C, 94%; at NR1/NR2A, 118%.

For the origin of these results see patent publication US8822462B2, “Subunit selective NMDA receptor potentiators for the treatment of neurological conditions” (Emory University, priority 2009, dated 2014).
